Data from article PMC4521150, “Discovery of Novel Inhibitors and Fluorescent Probe Targeting NAMPT” (Scientific Reports, 2015).

Experiments:
recombinant human NAMPT [1] = biological target: T1, recombinant human NAMPT (Homo sapiens, UniProt P43490); assay: NAMPT activity assay, IC50 determination (fluorometric detection of NMN derivative); details: molecular/biochemical assay, read-out: IC50 (NAMPT inhibition)
T1 construct: His tag (N); made in house; host or cells: E. coli BL21-CodonPlus (DE3)-RIL, pET21a+ vector
From the text: Using our previously established high throughput screening (HTS) platform and recombinant human NAMPT[14][15], we performed a HTS on a chemical library containing 30000 small-molecules (Chemdiv, CA, USA). Our HTS targeting NAMPT was developed based on a fluorometric method for NAMPT activity assay by measuring the fluorescence of nicotinamide mononucleotide (NMN) derivative resulting from the NAMPT enzymatic product NMN through simple chemical reactions (Fig. 1A). […] These fluorescent and non-fluorescent compounds were further studied separately.
HTS was performed using our previously reported method. 0.5 μl stock of each compound (1 mM DMSO stock) was transferred to a 96-well PCR plate for screening. In the primary screening, 5 ng NAMPT in 20 μl reaction buffer [0.4 mM phosphoribosylpyrophosphate (PRPP, Sigma), 2 mM ATP, 0.02% BSA, 2 mM DTT, 12 mM MgCl2 and 50 mM Tris-HCl (pH = 7.5)] was added into each well, the plate was incubated at 37 °C for 5 min, then 4.5 μl substrate of NAM was added to initiate the enzyme reaction, resulting in a final concentration of 2% DMSO, 2 μg/ml NAMPT, 0.2 μM NAM and 20 μM compound. After reacting at 37 °C for 15 min, the enzyme reaction was terminated by heating at 95 °C for 1 min and cooling in an ice bath. The product of NMN was detected through the following approach: after adding 10 μl 20% acetophenone in DMSO and 10 μl 2 M KOH into each well, the mixture was vortex-mixed and kept in ice bath for 2 min. […] Finally, 85 μl mixtures in each well were transferred into a flat-bottom 96-well black plate (Greiner), and the fluorescence (F) was measured using a Tecan Infinity M200 plate reader (Tecan Group Ltd.) by setting the excitation and emission wavelength to 382 nm and 445 nm respectively. The last row of each 96-well plate includes six wells of background controls and six wells of reference controls. The relative enzyme activity (Activity%) regulated by specific compound was calculated according to equation (1): […]
To determine the IC50 of inhibitors, 0.5 μl compound stocks with various concentrations were added into 96-well plate. The plate was incubated at 37 °C for 5 min after addition of 20 μl reaction buffer containing NAMPT. […] The IC50 values were determined by non-linear fitting of the concentration-dependent curves with the four-parameter IC50 logistic equation.

HepG2 cells = assay: Cell viability assay (CCK-8) in HepG2 cells; assay type: cell-based, human; details: 2 μM, 48 hours of incubation
Description: Cell viability was determined by our previous method[27] using the Cell Counting Kit-8 (CCK-8, Dojindo, Japan). In human hepatocellular carcinoma cell line HepG2, cells were seeded in 96-well plate and starved for over 12 h with serum-free DMEM at 60~70% confluency, then treated with compounds or vehicle for 48 h. To determine the IC50 values of inhibitors, compounds with various concentrations were added into the 96-well plate. 10 μl CCK-8 solution was added to the culture medium and incubated at 37 °C for 1 h. The absorbance at 450 nm (A450) was detected by a plate reader. Each experiment was carried out in triplicate in three replicate wells. The IC50 values were determined by non-linear fitting of the concentration-dependent curves with the four-parameter IC50 logistic equation.

recombinant human NAMPT [2] = biological target: T1, recombinant human NAMPT; assay: HTS / fixed-concentration NAMPT activity screen (fluorometric); assay type: biochemical; details: 20 μM compound; analogues of the 46 non-fluorescent inhibitors
From the text: Using our previously established high throughput screening (HTS) platform and recombinant human NAMPT[14][15], we performed a HTS on a chemical library containing 30000 small-molecules (Chemdiv, CA, USA). Our HTS targeting NAMPT was developed based on a fluorometric method for NAMPT activity assay by measuring the fluorescence of nicotinamide mononucleotide (NMN) derivative resulting from the NAMPT enzymatic product NMN through simple chemical reactions (Fig. 1A). The 30000 compounds were dissolved with dimethyl sulfoxide (DMSO); most of compounds were soluble at 10 mM stock solution (94.1%), some compounds insoluble at 10 mM were soluble at 2.5 mM stock solution (4.4%), and the remaining compounds insoluble at 2.5 mM (1.5%) were diluted further during HTS experiments (Fig. 1B). To guarantee the quality of screening, S/N ratio, CV and Z’ factors were monitored throughout the screenings, and all three indices met the requirements of HTS (Fig. 1C–E). After a primary screen and a secondary screen of all compounds at 20 μM, 242 compounds were selected as the hits of NAMPT inhibitors (NAMPT activity < 40%), and the hit rate was ~0.8% (Fig. 1F). […] All these 55 compounds were not reported as NAMPT inhibitors previously. Among the 55 compounds, we noted 46 compounds were non-fluorescent and 9 compounds were fluorescent (Fig. 1F). These fluorescent and non-fluorescent compounds were further studied separately.
HTS was performed using our previously reported method. 0.5 μl stock of each compound (1 mM DMSO stock) was transferred to a 96-well PCR plate for screening. In the primary screening, 5 ng NAMPT in 20 μl reaction buffer [0.4 mM phosphoribosylpyrophosphate (PRPP, Sigma), 2 mM ATP, 0.02% BSA, 2 mM DTT, 12 mM MgCl2 and 50 mM Tris-HCl (pH = 7.5)] was added into each well, the plate was incubated at 37 °C for 5 min, then 4.5 μl substrate of NAM was added to initiate the enzyme reaction, resulting in a final concentration of 2% DMSO, 2 μg/ml NAMPT, 0.2 μM NAM and 20 μM compound. After reacting at 37 °C for 15 min, the enzyme reaction was terminated by heating at 95 °C for 1 min and cooling in an ice bath. The product of NMN was detected through the following approach: after adding 10 μl 20% acetophenone in DMSO and 10 μl 2 M KOH into each well, the mixture was vortex-mixed and kept in ice bath for 2 min. Then 45 μl 88% formic acid was added and the mixture was incubated at 37 °C for 10 min. Finally, 85 μl mixtures in each well were transferred into a flat-bottom 96-well black plate (Greiner), and the fluorescence (F) was measured using a Tecan Infinity M200 plate reader (Tecan Group Ltd.) by setting the excitation and emission wavelength to 382 nm and 445 nm respectively. The last row of each 96-well plate includes six wells of background controls and six wells of reference controls. The relative enzyme activity (Activity%) regulated by specific compound was calculated according to equation (1):
F0 was the averaged fluorescence of six background controls, representing zero activity from a simulated enzyme reaction with only NAMPT but no NAM and compound; F100% was the averaged fluorescence of six reference controls, representing 100% activity from intact enzyme reaction without compound perturbation.
Compounds with Activity% less than 40% were considered as inhibitors and subjected to a secondary screen inhibition validation, in which another background control (FC0), a simulated enzyme reaction with NAMPT and compound but no NAM, was introduced to eliminate the direct and/or indirect influence from compound. At this stage, the Activity% was calculated according to equation (2): […]

T1 sequence (P43490 whole entry): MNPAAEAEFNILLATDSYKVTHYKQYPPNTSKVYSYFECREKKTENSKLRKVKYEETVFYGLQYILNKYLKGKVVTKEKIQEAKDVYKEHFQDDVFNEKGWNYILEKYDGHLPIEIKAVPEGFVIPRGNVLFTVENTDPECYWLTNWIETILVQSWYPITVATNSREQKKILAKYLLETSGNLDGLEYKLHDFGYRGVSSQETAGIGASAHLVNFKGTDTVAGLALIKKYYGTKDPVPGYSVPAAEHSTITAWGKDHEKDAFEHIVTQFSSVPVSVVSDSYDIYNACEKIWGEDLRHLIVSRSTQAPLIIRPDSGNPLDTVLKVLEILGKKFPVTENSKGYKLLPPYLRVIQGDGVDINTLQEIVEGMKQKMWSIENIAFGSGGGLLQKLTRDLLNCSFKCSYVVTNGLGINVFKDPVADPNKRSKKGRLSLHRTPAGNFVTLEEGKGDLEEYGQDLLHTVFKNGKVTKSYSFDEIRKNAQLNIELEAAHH

Compound	IC50 (recombinant human NAMPT [1])	Effect on HepG2 cell viability at 2 μM (HepG2 cells)	NAMPT inhibition activity at 20 μM (recombinant human NAMPT [2])
COc1ccc(CCNC(=O)NCc2noc3ccccc23)c(OC)c1 [E567-0299]	202 ± 17.6 nM		
O=C(NCc1noc2ccccc12)NC1CCCCC1 [E567-0011]	1620 ± 57.9 nM		
CC(=O)c1ccc(NC(=O)Cc2noc3ccccc23)cc1 [E207-0481]	739 ± 37.8 nM		
Cc1cc2nc(C)c(=O)n(Cc3ccc(C(=O)NCc4ccccn4)cc3)c2cc1C [F671-0199]	171 ± 16.8 nM		
COc1ccc(-c2nnc(COc3ccc(NC(=O)c4cnccn4)cc3)o2)cc1 [M350-0814]	118 ± 10.7 nM	significant inhibition on cell viability	
O=C(CSC1=Nc2ccccc2N=C(c2cccs2)C1)Nc1ccc2c(c1)OCCO2 [C201-1487]	172 ± 17.3 nM		Yes
Cc1ccccc1CCNC(=O)c1ccc(Cn2c(=O)c3cccn3c3cccnc32)cc1 [E524-1763]	253 ± 17.9 nM		
CN1C(=O)C(C)(C)c2cc(S(=O)(=O)NCc3ccc(C(=O)NCc4cccnc4)cc3)ccc21 [E589-3083]	116 ± 13.1 nM		
O=C(NCc1ccccc1)c1ccc(Cn2c(=O)c3cccn3c3cccnc32)cc1 [E524-1566]	140 ± 7.31 nM	significant inhibition on cell viability	
Cc1ccc(CNC(=O)c2ccc(Cn3c(=O)c4cccn4c4cccnc43)cc2)cc1 [E524-1599]	97.8 ± 3.13 nM	significant inhibition on cell viability	
CCn1c(=O)c(=O)n(Cc2ccc(C(=O)NCc3ccccc3F)cc2)c2cccnc21 [F704-0231]	1450 ± 143 nM		
O=C(CSC1=Nc2ccccc2N=C(c2ccccn2)C1)Nc1ccc2c(c1)OCCO2 [C201-1928]	1450 ± 51.7 nM		
O=C(CSc1nc2c(c(C(F)(F)F)n1)CCc1ccccc1-2)NCCCn1ccnc1 [6466-0191]	59.4 ± 1.15 nM		
CC1CCN(c2c(NCc3ccc(C(=O)NCc4ccc(F)cc4)cc3)c(=O)c2=O)CC1 [C852-0431]	869 ± 67.2 nM		
COc1ccc(CNC(=O)c2ccc(Cn3c(=O)c4cccn4c4cccnc43)cc2)cc1 [E524-1597]	75.9 ± 3.51 nM		
O=C(Nc1cccnc1)c1ccc(-n2cnnn2)cc1 [D633-0045]	416 ± 30.7 nM		
CC1CCN(c2c(NCc3ccc(C(=O)NCCc4ccccc4)cc3)c(=O)c2=O)CC1 [C852-0409]	1280 ± 154 nM		
O=C(Nc1ccc(OCc2nnc(-c3ccccc3)o2)cc1)c1cnccn1 [M350-0100]	60.2 ± 3.63 nM	significant inhibition on cell viability	Yes
CSc1ccc(CCNC(=O)NCc2noc3ccccc23)cc1 [E567-0304]	126 ± 4.23 nM		

Compound	IC50 (recombinant human NAMPT [1])	Effect on HepG2 cell viability at 2 μM (HepG2 cells)	NAMPT inhibition activity at 20 μM (recombinant human NAMPT [2])
CCCc1cc(Nc2ccc(C(=O)NCc3cccnc3)cc2)n2nc(-c3cccnc3)nc2n1 [D515-0654]	283 ± 19.2 nM	significant inhibition on cell viability	
O=C(NCc1ccc(Cl)cc1)c1ccc(CNc2c(N3CCCCC3)c(=O)c2=O)cc1 [C804-0859]	704 ± 16.7 nM		
Cc1nn(CCCC(=O)Nc2cccc(F)c2)c(=O)c2c1sc1ccccc12 [E019-0970]	298 ± 32.1 nM		
COc1ccc(OC)c(CCNC(=O)NCc2noc3ccccc23)c1 [E567-0302]	401 ± 11.2 nM		
COc1ccc(NC(=O)NCc2noc3ccccc23)cc1Cl [E567-0014]	411 ± 28.1 nM		
CCc1ccc(NC(=O)NCc2noc3ccccc23)cc1 [E567-0089]	62.6 ± 2.89 nM		
CC(C)CCNC(=O)c1ccc(Cn2c(=O)c3cccn3c3cccnc32)cc1 [E524-1626]	393 ± 8.51 nM		
O=C(NCCc1ccccc1)c1ccc(Cn2c(=O)c3cccn3c3cccnc32)cc1 [E524-1628]	70.9 ± 0.74 nM		
O=C(NCCCN1CCCC1=O)c1ccc(N2CCc3ccccc32)s1 [G122-1637]	411 ± 148 nM		
CC(=O)C1=C(C)Nc2ccccc2S1 [1932-0007]	408.6 ± 1.83 nM		
Cc1cccc(CNC(=O)c2ccc(Cn3c(=O)c4cccn4c4cccnc43)cc2)c1 [E524-1627]	85.5 ± 11.1 nM	significant inhibition on cell viability	
CC(=O)c1cccc(NC(=O)NCc2noc3ccccc23)c1 [E567-0248]	250 ± 40.7 nM		
CCn1c(=O)c(=O)n(Cc2ccc(C(=O)NCc3cccc(Br)c3)cc2)c2cccnc21 [F704-0251]	517 ± 37.9 nM		
CCn1c(=O)c(=O)n(Cc2ccc(C(=O)NCc3cccc(Cl)c3)cc2)c2cccnc21 [F704-0076]	1000 ± 57 nM		
Cc1ccccc1-c1nnc(COc2ccc(NC(=O)c3cnccn3)cc2)o1 [M350-1052]	60.8 ± 2.61 nM		
CCn1c(=O)c(=O)n(Cc2ccc(C(=O)NCc3ccc(Cl)cc3)cc2)c2cccnc21 [F704-0088]	296 ± 7.61 nM		
CCOC(=O)c1ccc(NC(=O)NCc2noc3ccccc23)cc1 [E567-0238]	86.9 ± 2.77 nM		
COc1ccc(NC(=O)NCc2noc3ccccc23)cc1 [E567-0222]	171 ± 10.7 nM	significant inhibition on cell viability	
